These results are taken from patent publication US20140162980A1, “NOVEL MICROBIOCIDAL DIOXIME ETHER DERIVATIVES” (SYNGENTA CROP PROTECTION LLC, priority 2010, published 2014).

SMILES strings stand for the structures. A value given as a limit tells only on which side of the number the result lay.

One data set has as its system Phytophthora infestans. As to the kind of experiment: whole plant or invertebrate. The format is in vivo. The settings on record: in Solanum lycopersicum, foliar, read-out: control of Phytophthora infestans (percent disease control compared to untreated).
In data set [1] the test system is Botryotinia fuckeliana (Botrytis cinerea). The experiment in a line: Botryotinia fuckeliana (Botrytis cinerea) / liquid culture (gray mould). The data set is classed as cell-based. The settings on record: Vogels broth, 24° C., 3-4 days after application, read-out: control of Botryotinia fuckeliana (inhibition of growth, photometrically).
The next data set relates to Pyrenophora teres. The experiment in a line: Pyrenophora teres / barley / leaf disc preventative (net blotch). The data set is classed as in vivo. To be noted: foliar, barley leaf segments cv Hasso, inoculated two days after application, assessed 5-7 days after application, read-out: control of Pyrenophora teres (disease control compared to untreated). The method, boiled down:
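Barley cv Hasso leaf segments on agar sprayed with compound at 200 ppm, inoculated with spores two days later. Kept at 20 °C, 65% RH, 12/12 h light; disease control versus untreated scored 5-7 days after application.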

A further data set has as its system Sclerotinia sclerotiorum. As to the kind of experiment: Sclerotinia sclerotiorum / liquid culture (cottony rot). The format is cell-based. To be noted: PDB potato dextrose broth, 24° C., 3-4 days after application, read-out: control of Sclerotinia sclerotiorum (inhibition of growth, photometrically). On the procedure: Sclerotinia Sclerotiorum/Liquid Culture (Cottony Rot) Mycelia fragments of a newly grown liquid culture of the fungus are directly mixed into nutrient broth (PDB potato dextrose broth). After placing a (DMSO) solution of test compound into a microtiter plate at an application rate 200 ppm (96-well format) the nutrient broth containing the fungal material is added. The test plates are incubated at 24° C. and the inhibition of growth is determined photometrically 3-4 days after application.

Data set [2] relates to Thanatephorus cucumeris (Rhizoctonia solani). The experiment in a line: Thanatephorus cucumeris (Rhizoctonia solani) / liquid culture (foot rot, damping-off). To be noted: PDB potato dextrose broth, 24° C., 3-4 days after application, read-out: control of Thanatephorus cucumeris (inhibition of growth, photometrically). The data set is classed as cell-based.
The test system of another data set is Pythium ultimum. As to the kind of experiment: Pythium ultimum / liquid culture (seedling damping off). The format is cell-based. To be noted: Globisporangium ultimum, PDB potato dextrose broth, 24° C., 2-3 days after application, read-out: control of Pythium ultimum (inhibition of growth, photometrically).
Another data set has as its system Alternaria solani. The experiment in a line: Alternaria solani / tomato / leaf disc (early blight). The settings on record: foliar, tomato leaf disks cv. Baby, inoculated 2 days after application, assessed 5-7 days after application, read-out: control of Alternaria solani (percent disease control compared to untreated). The data set is classed as in vivo. On the procedure: Alternaria Solani/Tomato/Leaf Disc (Early Blight): Tomato leaf disks cv. Baby are placed on agar in multiwell plates (24-well format) and sprayed with the formulated test compound diluted in water at an application rate of 200 ppm. The leaf disks are inoculated with a spore suspension of the fungus 2 days after application. The inoculated leaf disks are incubated at 23° C./21° C.

The test system of data set [3] is Blumeria graminis f. sp. tritici (Erysiphe graminis f. sp. tritici). As to the kind of experiment: Blumeria graminis f. sp. tritici / wheat / leaf disc preventative (powdery mildew on wheat). The format is in vivo. The settings on record: foliar, wheat leaf segments cv. Kanzler, inoculated 1 day after application, assessed 6-8 days after application, read-out: control of Blumeria graminis (percent disease control compared to untreated).

A further data set deals with Plasmopara viticola. As to the kind of experiment: whole plant or invertebrate. The settings on record: foliar, read-out: control of Plasmopara viticola (percent disease control compared to untreated). The format is in vivo.
For data set [4], the system named is Puccinia recondita f. sp. tritici. As to the kind of experiment: Puccinia recondita f. sp. tritici / wheat / leaf disc preventative (brown rust). The data set is classed as in vivo. To be noted: foliar, wheat leaf segments cv Kanzler, inoculated 1 day after application, assessed 7-9 days after application, read-out: control of Puccinia recondita f. sp. tritici, preventative (percent disease control compared to untreated).

For data set [5], the system named is Magnaporthe grisea (Pyricularia oryzae). As to the kind of experiment: whole plant or invertebrate. The format is in vivo. The settings on record: foliar, read-out: control of Magnaporthe grisea (percent disease control compared to untreated).
In data set [6] the test system is Phaeosphaeria nodorum (Septoria nodorum). The experiment in a line: Phaeosphaeria nodorum (Septoria nodorum) / wheat / leaf disc preventative (glume blotch). The data set is classed as in vivo. To be noted: Parastagonospora nodorum, foliar, wheat leaf segments cv Kanzler, inoculated 2 days after application, assessed 5-7 days after application, read-out: control of Phaeosphaeria nodorum (percent disease control compared to untreated).

The subject of data set [7] is Puccinia recondita f. sp. tritici. As to the kind of experiment: Puccinia recondita f. sp. tritici / wheat / leaf disc curative (brown rust). The data set is classed as in vivo. The settings on record: foliar, 200 ppm applied 1 day after inoculation, wheat leaf segments cv Kanzler, assessed 6-8 days after application, read-out: control of Puccinia recondita f. sp. tritici, curative (percent disease control compared to untreated). On the procedure: Puccinia Recondita f. Sp. Tritici/Wheat/Leaf Disc Curative (Brown Rust): Wheat leaf segments cv Kanzler were placed on agar in 24-well plates. The leaf segments were inoculated with a spore suspension of the fungus. The plates were stored in darkness at 19° C. and 75% relative humidity. The formulated test compound diluted in water was applied at an application rate of 200 ppm 1 day after inoculation.

Take `Clc1ccc2c(n1)/C(=N/OCC1(CO/N=C3\CCc4ccc(Cl)nc43)CC1)CC2` [P.21]: the melting point (usually the temperature of the solid-liquid transition) lay within 170 to 173 °C.

Take `c1ccc(-c2c3c(nc4ccccc24)/C(=N/OCCCO/N=C2\CCCc4c2nc2ccccc2c4-c2ccccc2)CCC3)cc1` [P.26]: the melting point fell in the range of 205 to 210 °C.

On to `Cc1ccc2c(n1)/C(=N/OCCCO/N=C1\CCCc3cc4c(nc31)CCCC4)CCC2` [P.39], for which the pest or weed control at 200 ppm (in the data set on Phytophthora infestans; in the data set with Pyrenophora teres; with Alternaria solani; in data set [3]; in the data set with Plasmopara viticola; in data set [4]) was not below 80% in each case. Further, the pest or weed control at 200 ppm in data set [5], in data set [6] and in [7] was not below 80% throughout. Besides, the inhibition at 200 ppm (in [1]; with Sclerotinia sclerotiorum; in [2]; in the data set on Pythium ultimum) was not below 80% in each case.

Regarding `Cc1ccc2c(n1)/C(=N/OCC(C)(C)CO/N=C1\CCCc3cc4c(nc31)CCCC4)CCC2` [P.40], the pest or weed control at 200 ppm (in the data set with Phytophthora infestans; in the data set with Pyrenophora teres; with Alternaria solani; in data set [3]; in the data set on Plasmopara viticola; in [4]) was not below 80% throughout. Further, the pest or weed control at 200 ppm in [5], in [6] and in [7] was not below 80% in each case. In addition, the inhibition at 200 ppm (in [1]; in the data set on Sclerotinia sclerotiorum; in data set [2]; with Pythium ultimum) was not below 80% in each case.
